This is an account of results in patent US20130101530A1, “ANTIMICROBIAL PRESERVATIVE COMPOSITIONS FOR PERSONAL CARE PRODUCTS” (GALAXY SURFACTANTS LTD., priority 2011, published 2013).

Structures are written as SMILES. In brackets after ≈: the same amount, converted by molar mass. Read-outs that look alike come from different tables or passages of the source.

Common to all, as to format: cell-based
In assay [1] the test system is Malassezia furfur MTCC 1374. In words: Minimum inhibitory concentration.
The subject of assay [2] is Escherichia coli ATCC 10142. In words: Minimum inhibitory concentration.
The test system of assay [3] is Bacillus subtilis ATCC 9372. In words: microbe, parasite or virus in culture. Particulars: for MIC: ATCC9372.
The test system of assay [4] is Propionibacterium acnes MTCC 1951. In words: Minimum inhibitory concentration. Particulars: for MIC: Cutibacterium acnes.
Assay [5] has as its system Aspergillus niger ATCC 16404. In words: Minimum inhibitory concentration.
Assay [6] deals with Candida albicans ATCC 10231. The experiment in a line: Minimum inhibitory concentration.
Assay [7] deals with Pseudomonas aeruginosa Immuno type IV. In words: Minimum inhibitory concentration.
In assay [8] the test system is Staphylococcus aureus ATCC 6538S. In words: Minimum inhibitory concentration. Particulars: for MIC: ATCC6538S.
For assay [9], the system named is all types of microbes (Gram positive, Gram negative bacteria, yeast and mould; the chosen eight organisms). In words: Minimum inhibitory concentration, whole panel.
[10] abbreviates: Bacillus subtilis ATCC 9372, read-out: MINIMUM INHIBITORY CONCENTRATION
The mark [11] stands for this setting: in Preservative Blend No 1 (10:10:80), Bacillus subtilis, read-out: Concentration of individual component at MIC of Preservative Blend No 1.

With `CCCCCCCC(=O)NCC(=O)O` [Octanoyl Glycine, N-Octanoyl glycine], the MIC in assay [1] (MTCC1374, Malassezia furfur MTCC 1374, read-out: MINIMUM INHIBITORY CONCENTRATION) was 3000 µg/mL (≈ 14.9 mM); in assay [1] (MTCC1374, in Preservative Blend No 1 (10:10:80), Malassezia furfur, read-out: Concentration of individual component at MIC of Preservative Blend No 1), 400 µg/mL; in [2] (ATCC10142, Escherichia coli ATCC 10142, read-out: MINIMUM INHIBITORY CONCENTRATION), 3000 µg/mL (≈ 14.9 mM); in assay [2] (ATCC10142, in Preservative Blend No 1 (10:10:80), Escherichia coli, read-out: Concentration of individual component at MIC of Preservative Blend No 1), 200 µg/mL; in [3] (setting [10]) it was 3000 µg/mL (≈ 14.9 mM); in [3] (setting [11]), 200 µg/mL. Moreover, the MIC in assay [4] (MTCC1951, Propionibacterium acnes MTCC 1951, read-out: MINIMUM INHIBITORY CONCENTRATION) turned out to be 3000 µg/mL (≈ 14.9 mM); in [4] (MTCC1951, in Preservative Blend No 1 (10:10:80), Propionibacterium acnes, read-out: Concentration of individual component at MIC of Preservative Blend No 1) it was 300 µg/mL; in assay [5] (ATCC16404; in Preservative Blend No 1 (10:10:80); Aspergillus niger; read-out: Concentration of individual component at MIC of Preservative Blend No 1), 300 µg/mL; in assay [5] (Aspergillus niger, ATCC16404; read-out: MINIMUM INHIBITORY CONCENTRATION) it was 4000 µg/mL (≈ 19.9 mM); in assay [6] (ATCC10231, Candida albicans ATCC 10231, read-out: MINIMUM INHIBITORY CONCENTRATION), 4000 µg/mL (≈ 19.9 mM); in [6] (ATCC10231, in Preservative Blend No 1 (10:10:80), Candida albicans, read-out: Concentration of individual component at MIC of Preservative Blend No 1), 300 µg/mL. Further, the MIC in assay [7] (Pseudomonas aeruginosa Immuno type IV, read-out: MINIMUM INHIBITORY CONCENTRATION) was 3000 µg/mL (≈ 14.9 mM); in [7] (in Preservative Blend No 1 (10:10:80), Pseudomonas aeruginosa, read-out: Concentration of individual component at MIC of Preservative Blend No 1) it was 200 µg/mL; in assay [8] (Staphylococcus aureus ATCC 6538S, read-out: MINIMUM INHIBITORY CONCENTRATION) it was 3000 µg/mL (≈ 14.9 mM); in [8] (in Preservative Blend No 1 (10:10:80), Staphylococcus aureus, read-out: Concentration of individual component at MIC of Preservative Blend No 1), 200 µg/mL.
Consider `OCCOc1ccccc1` [Phenoxy ethanol, 2-Phenoxy ethanol], for which the MIC in [1] (Malassezia furfur, MTCC1374, read-out: Concentration of individual component at MIC of Preservative Blend No 1) stood at 3200 µg/mL; in [1] (Malassezia furfur, MTCC1374, read-out: Concentration of individual component at MIC of Preservative Blend No 2), 3200 µg/mL; in [1] (Malassezia furfur, MTCC1374, read-out: MINIMUM INHIBITORY CONCENTRATION), 4000 µg/mL (≈ 29 mM); in [2] (Escherichia coli, ATCC10142, read-out: Concentration of individual component at MIC of Preservative Blend No 1), 1600 µg/mL; in assay [2] (Escherichia coli, ATCC10142, read-out: Concentration of individual component at MIC of Preservative Blend No 2), 2400 µg/mL; in assay [2] (Escherichia coli, ATCC10142, read-out: MINIMUM INHIBITORY CONCENTRATION), 6000 µg/mL (≈ 43.4 mM). Moreover, the MIC came out at 4000 µg/mL (≈ 29 mM) in assay [3] (setting [10]); 1600 µg/mL in [3] (setting [11]); 1600 µg/mL in assay [3] (in Preservative Blend No 2 (10:10:80), Bacillus subtilis, read-out: Concentration of individual component at MIC of Preservative Blend No 2); 2400 µg/mL in assay [4] (MTCC1951, read-out: Concentration of individual component at MIC of Preservative Blend No 1); 1600 µg/mL in assay [4] (MTCC1951, read-out: Concentration of individual component at MIC of Preservative Blend No 2); 4000 µg/mL (≈ 29 mM) in assay [4] (MTCC1951, read-out: MINIMUM INHIBITORY CONCENTRATION). Further, the MIC is 2400 µg/mL in assay [5] (Aspergillus niger, ATCC16404, read-out: Concentration of individual component at MIC of Preservative Blend No 1); 1600 µg/mL in assay [5] (Aspergillus niger, ATCC16404, read-out: Concentration of individual component at MIC of Preservative Blend No 2); 9000 µg/mL (≈ 65.1 mM) in assay [5] (Aspergillus niger, ATCC16404, read-out: MINIMUM INHIBITORY CONCENTRATION); 2400 µg/mL in assay [6] (Candida albicans, ATCC10231, read-out: Concentration of individual component at MIC of Preservative Blend No 1); 1600 µg/mL in assay [6] (Candida albicans, ATCC10231, read-out: Concentration of individual component at MIC of Preservative Blend No 2); 6000 µg/mL (≈ 43.4 mM) in [6] (Candida albicans, ATCC10231, read-out: MINIMUM INHIBITORY CONCENTRATION). Further, the MIC in [7] (Pseudomonas aeruginosa, read-out: Concentration of individual component at MIC of Preservative Blend No 1) came out at 1600 µg/mL; in assay [7] (Pseudomonas aeruginosa, read-out: Concentration of individual component at MIC of Preservative Blend No 2), 2400 µg/mL; in assay [7] (Pseudomonas aeruginosa, read-out: MINIMUM INHIBITORY CONCENTRATION), 4000 µg/mL (≈ 29 mM); in assay [8] (Staphylococcus aureus, read-out: Concentration of individual component at MIC of Preservative Blend No 1) it was 1600 µg/mL; in assay [8] (Staphylococcus aureus, read-out: Concentration of individual component at MIC of Preservative Blend No 2) it was 2400 µg/mL; in assay [8] (Staphylococcus aureus, read-out: MINIMUM INHIBITORY CONCENTRATION), 8500 µg/mL (≈ 61.5 mM). The “Concentration enough to kill the organism in combination with components [A] and [B]” value is recorded as “around 0.25%” in assay [5] (in Preservative Blend No 1; Aspergillus) and “around 0.25%” in [6] (in Preservative Blend No 1, Candida). Besides, the “Activity against yeast and mould” value in assay [9] (ingredient alone, Aspergillus and Candida) is given as “virtually no activity”. For the same molecule, the Activity against bacteria entry in [9] (ingredient alone, particularly Gram positive) is listed as “weak activity”.
In the case of `C=CCCCCCCCCC(=O)NCCO` [Undecylenoyl MEA amide, N-undecylenoyl monoethanol amide], the “MINIMUM INHIBITORY CONCENTRATION” value in assay [1] (Malassezia furfur MTCC 1374), in assay [2] (Escherichia coli ATCC 10142), in assay [3] (Bacillus subtilis ATCC 9372), in assay [4] (Propionibacterium acnes MTCC 1951), in assay [5] (Aspergillus niger) and in [6] (Candida albicans ATCC 10231) was more than 10000 ppm each time. Besides, the “MINIMUM INHIBITORY CONCENTRATION” value in assay [7] (Pseudomonas aeruginosa Immuno type IV) and in assay [8] (Staphylococcus aureus ATCC 6538S) was more than 10000 ppm throughout. The “Concentration of individual component at MIC of Preservative Blend No 1” value in assay [1] (in Preservative Blend No 1 (10:10:80), Malassezia furfur) was determined as 400 ppm; in [2] (in Preservative Blend No 1 (10:10:80), Escherichia coli), 200 ppm; in assay [3] (in Preservative Blend No 1 (10:10:80), Bacillus subtilis) it was 200 ppm; in assay [4] (in Preservative Blend No 1 (10:10:80), Propionibacterium acnes), 300 ppm; in [5] (in Preservative Blend No 1 (10:10:80); Aspergillus niger) it was 300 ppm; in assay [6] (in Preservative Blend No 1 (10:10:80), Candida albicans) it was 300 ppm. Besides, the “Concentration of individual component at MIC of Preservative Blend No 1” value in assay [7] (in Preservative Blend No 1 (10:10:80), Pseudomonas aeruginosa) is given as 200 ppm; in assay [8] (in Preservative Blend No 1 (10:10:80), Staphylococcus aureus), 200 ppm. The “Concentration of individual component at MIC of Preservative Blend No 2” value worked out at 400 ppm in [1] (in Preservative Blend No 2 (10:10:80), Malassezia furfur); 300 ppm in assay [2] (in Preservative Blend No 2 (10:10:80), Escherichia coli); 200 ppm in assay [3] (in Preservative Blend No 2 (10:10:80), Bacillus subtilis); 200 ppm in assay [4] (in Preservative Blend No 2 (10:10:80), Propionibacterium acnes); 200 ppm in [5] (in Preservative Blend No 2 (10:10:80); Aspergillus niger); 200 ppm in assay [6] (in Preservative Blend No 2 (10:10:80), Candida albicans). In addition, the “Concentration of individual component at MIC of Preservative Blend No 2” value in assay [7] (in Preservative Blend No 2 (10:10:80), Pseudomonas aeruginosa) turned out to be 300 ppm; in assay [8] (in Preservative Blend No 2 (10:10:80), Staphylococcus aureus), 300 ppm. Moreover, the “Concentration needed for activity of the ingredient by itself against the broad range of microbes” value in [9] (ingredient alone, octanoyl glycine tested at neutral pH) is listed as more than 10000 ppm. Besides, the “Antimicrobial activity of the ingredient alone” value in [9] (up to 1.0% concentration, bacteria, yeast and mould) is given as “does not exhibit any antimicrobial activity”.
